From patent US9822114B2, “Tricyclic oxazolidinone antibiotic compounds” (Idorsia Pharmaceuticals Ltd, priority 2008, dated 2017)

What follows are compounds tested on M. catarrhalis A894 (assay: Minimal inhibitory concentration (MIC), microdilution method in cation-adjusted Mueller-Hinton Broth (CLSI M7-A7)). Details: Moraxella catarrhalis, strain A894.
Type: cell-based
Experimental: Minimal inhibitory concentrations (MICs; mg/1) were determined in cation-adjusted Mueller-Hinton Broth by a microdilution method following the description given in “Methods for Dilution Antimicrobial Susceptibility Tests for Bacteria that Grow Aerobically”, Approved standard, 7th ed., Clinical and Laboratory Standards Institute (CLSI) Document M7-A7, Wayne, Pa., USA, 2006.

SMILES | MIC [µg/mL]
O=C1COc2ccc(N3C[C@@H](CCNCC4Cn5c(=O)ccc6ccc(F)c4c65)OC3=O)cc2N1 (mixture of isomers) [Example 2, (1RS)-9-fluoro-1-({2-[(R)-2-oxo-3-(3-oxo-3,4-dihydro-2H-benzo[1,4]oxazin-6-yl)-oxazolidin-5-yl]-ethylamino}-methyl)-1,2-dihydro-pyrrolo[3,2,1-ij]quinolin-4-one] | ≤ 0.031
O=C1COc2ccc(N3C[C@H](CCCN[C@H]4Cn5c(=O)ccc6cccc4c65)OC3=O)nc2N1 [Example 135, (R)-1-{3-[(S)-2-oxo-3-(3-oxo-3,4-dihydro-2H-pyrido[3,2-b][1,4]oxazin-6-yl)-oxazolidin-5-yl]-propylamino}-1,2-dihydro-pyrrolo[3,2,1-ij]quinolin-4-one] | ≤ 0.031
Cc1ccc(N2C[C@@H](CNCCC3CN4C(=O)CCc5ccc(F)c3c54)OC2=O)cc1F (mixture of isomers) [Example 27, (1RS)-9-fluoro-1-(2-{[(R)-3-(3-fluoro-4-methyl-phenyl)-2-oxo-oxazolidin-5-ylmethyl]-amino}-ethyl)-1,2,5,6-tetrahydro-pyrrolo[3,2,1-ij]quinolin-4-one] | 0.5
O=C1CSc2ccc(N3C[C@@H](CNCCC4Cn5c(=O)ccc6ncc(F)c4c65)OC3=O)cc2N1 (mixture of isomers) [Example 17, (4RS)-3-fluoro-4-(2-{[(R)-2-oxo-3-(3-oxo-3,4-dihydro-2H-benzo[1,4]thiazin-6-yl)-oxazolidin-5-ylmethyl]-amino}-ethyl)-4,5-dihydro-pyrrolo[3,2,1-de][1,5]naphthyridin-7-one] | ≤ 0.031
O=C1CSc2ccc(N3C[C@@H](CCNCC4Cn5c(=O)ccc6ccc(F)c4c65)OC3=O)cc2N1 (mixture of isomers) [Example 3, (1RS)-9-fluoro-1-({2-[(R)-2-oxo-3-(3-oxo-3,4-dihydro-2H-benzo[1,4]thiazin-6-yl)-oxazolidin-5-yl]-ethylamino}-methyl)-1,2-dihydro-pyrrolo[3,2,1-ij]quinolin-4-one] | ≤ 0.031
N#Cc1ccc2ccc(=O)n3c2c1C(NCCC[C@@H]1CN(c2ccc4c(c2)NC(=O)CS4)C(=O)O1)C3 (mixture of isomers) [Example 117, (RS)-4-oxo-1-{3-[(R)-2-oxo-3-(3-oxo-3,4-dihydro-2H-benzo[1,4]thiazin-6-yl)-oxazolidin-5-yl]-propylamino}-1,2-dihydro-4H-pyrrolo[3,2,1-ij]quinoline-9-carbonitrile] | ≤ 0.031
O=C1CSc2ccc(N3C[C@@H](CCCN[C@H]4Cn5c(=O)cnc6ccc(F)c4c65)OC3=O)cc2N1 [Example 105, (R)-7-fluoro-6-{3-[(R)-2-oxo-3-(3-oxo-3,4-dihydro-2H-benzo[1,4]thiazin-6-yl)-oxazolidin-5-yl]-propylamino}-5,6-dihydro-pyrrolo[1,2,3-de]quinoxalin-3-one] | ≤ 0.031
O=C1CSc2ccc(N3C[C@@H](CCCN[C@@H]4Cn5c(=O)ccc6nccc4c65)OC3=O)cc2N1 [Example 39, (S)-4-{3-[(R)-2-oxo-3-(3-oxo-3,4-dihydro-2H-benzo[1,4]thiazin-6-yl)-oxazolidin-5-yl]-propylamino}-4,5-dihydro-pyrrolo[3,2,1-de][1,5]naphthyridin-7-one] | ≤ 0.031
O=C1COc2ccc(N3C[C@@H](CCCN[C@H]4Cn5c(=O)cnc6cccc4c65)OC3=O)cc2N1 [Example 65, (R)-6-{3-[(R)-2-oxo-3-(3-oxo-3,4-dihydro-2H-benzo[1,4]oxazin-6-yl)-oxazolidin-5-yl]-propylamino}-5,6-dihydro-pyrrolo[1,2,3-de]quinoxalin-3-one] | ≤ 0.031
O=C1CSc2ccc(N3C[C@H](CNCCC4Cn5c(=O)ccc6ccc(F)c4c65)OC3=O)cc2N1 (mixture of isomers) [Example 8, (1RS)-9-fluoro-1-(2-{[(S)-2-oxo-3-(3-oxo-3,4-dihydro-2H-benzo[1,4]thiazin-6-yl)-oxazolidin-5-ylmethyl]-amino}-ethyl)-1,2-dihydro-pyrrolo[3,2,1-ij]quinolin-4-one] | ≤ 0.031
O=C1CSc2ccc(N3C[C@H](CCCN[C@@H]4Cn5c(=O)ccc6ncc(F)c4c65)OC3=O)cc2N1 [Example 148, (S)-3-fluoro-4-{3-[(S)-2-oxo-3-(3-oxo-3,4-dihydro-2H-benzo[1,4]thiazin-6-yl)-oxazolidin-5-yl]-propylamino}-4,5-dihydro-pyrrolo[3,2,1-de][1,5]naphthyridin-7-one] | ≤ 0.031

The remaining lines, values ahead:

MIC [µg/mL] | SMILES
≤ 0.031 | O=C1CSc2ccc(N3C[C@@H](CCCNC4Cn5c(=O)ccc6cccc4c65)OC3=O)cc2N1 (mixture of isomers) [Example 35, (RS)-1-{3-[(R)-2-oxo-3-(3-oxo-3,4-dihydro-2H-benzo[1,4]thiazin-6-yl)-oxazolidin-5-yl]-propylamino}-1,2-dihydro-pyrrolo[3,2,1-ij]quinolin-4-one]
≤ 0.031 | O=C1CSc2ccc(N3C[C@@H](CNCC4Cn5c(=O)cnc6cccc4c65)OC3=O)cc2N1 (mixture of isomers) [Example 110, (RS)-6-({[(R)-2-oxo-3-(3-oxo-3,4-dihydro-2H-benzo[1,4]thiazin-6-yl)-oxazolidin-5-ylmethyl]-amino}-methyl)-5,6-dihydro-pyrrolo[1,2,3-de]quinoxalin-3-one]
≤ 0.031 | O=C1CSc2ccc(N3C[C@H](CCNC[C@@H]4Cn5c(=O)ccc6nccc4c65)OC3=O)cc2N1 [Example 78, (R)-4-({2-[(S)-2-oxo-3-(3-oxo-3,4-dihydro-2H-benzo[1,4]thiazin-6-yl)-oxazolidin-5-yl]-ethylamino}-methyl)-4,5-dihydro-pyrrolo[3,2,1-de][1,5]naphthyridin-7-one]
≤ 0.031 | O=C1CSc2ccc(N3C[C@H](CCN(CCCO)CC4Cn5c(=O)ccc6ccc(F)c4c65)OC3=O)cc2N1 (mixture of isomers) [Example 90, (RS)-9-fluoro-1-[((3-hydroxy-propyl)-{2-[(S)-2-oxo-3-(3-oxo-3,4-dihydro-2H-benzo[1,4]thiazin-6-yl)-oxazolidin-5-yl]-ethyl}-amino)-methyl]-1,2-dihydro-pyrrolo[3,2,1-ij]quinolin-4-one]
≤ 0.031 | O=C1CSc2ccc(N3C[C@@H](CCCNC4Cn5c(=O)ccc6ccc(Br)c4c65)OC3=O)cc2N1 (mixture of isomers) [Example 116, (RS)-9-bromo-1-{3-[(R)-2-oxo-3-(3-oxo-3,4-dihydro-2H-benzo[1,4]thiazin-6-yl)-oxazolidin-5-yl]-propylamino}-1,2-dihydro-pyrrolo[3,2,1-ij]quinolin-4-one]
≤ 0.031 | O=C1CSc2ccc(N3C[C@@H](CCCN[C@H]4CN5C(=O)CNc6ccc(F)c4c65)OC3=O)nc2N1 [Example 171, (R)-7-fluoro-6-{3-[(R)-2-oxo-3-(3-oxo-3,4-dihydro-2H-pyrido[3,2-b][1,4]thiazin-6-yl)-oxazolidin-5-yl]-propylamino}-1,2,5,6-tetrahydro-pyrrolo[1,2,3-de]quinoxalin-3-one]

Same assay, conditions: strain A894

MIC for M. catarrhalis A894 | SMILES
≦0.031 mg/l | O=C1CSc2ccc(N3C[C@H](CCNCC4Cn5c(=O)ccc6cccc4c65)OC3=O)cc2N1 (mixture of isomers) [Example 61, (RS)-1-({2-[(S)-2-oxo-3-(3-oxo-3,4-dihydro-2H-benzo[1,4]thiazin-6-yl)-oxazolidin-5-yl]-ethylamino}-methyl)-1,2-dihydro-pyrrolo[3,2,1-U]quinolin-4-one]
